Assay results from patent publication US20060004029A1, “Nitrogen-containing aromatic derivatives” (priority 2003, published 2006).

Molecular target: T1, VEGFR2 (Homo sapiens, UniProt P35968)
T1 construct: coding for the cytoplasmic domain, beginning with lysine 791 and including the termination codon; made in house; host or cells: Sf9 insect cells, baculovirus (pFastBacHis)
Experiment: Inhibition against receptor tyrosine kinase activity (HTRF), VEGFR2
Format: biochemical
Settings: His6-VEGFR2 cytoplasmic domain, biotin-poly(GT), HTRF; read-out: VEGFR2 kinase IC50
Method: This assay is used to determine inhibition of a test substance on tyrosine kinase activity. […] Expression in an appropriate expression system can produce a polypeptide with tyrosine kinase activity. […] The recombinant construct was transfected into insect cells (Spondoptea frugiperda9 (Sf9)) to prepare a recombinant Baculovirus.
For expression of the VEGFR2 tyrosine kinase, Sf9 cells were infected with the VEGFR2 recombinant virus and collected after 48 hours. The collected cells were rinsed with ice-cooled phosphate buffered saline (PBS) and then resuspended using 20 ml of ice-cooled Lysis Buffer (50 mM Tris-HCl (pH 8.5), 5 mM 2-mercaptoethanol, 100 mM KCl, 1 mM phenylmethylsulfonyl fluoride, 1% (v/v) NP-40) per 1.5×10^8 cells. The suspension was centrifuged at 12,000 rpm for 30 minutes at 4° C. and the supernatant was obtained. The supernatant was added to a Ni-NTA agarose column (3 ml, purchased from Qiagen) equilibrated with Buffer A {20 mM Tris-HCl (pH 8.5), 5 mM 2-mercaptoethanol, 500 mM KCl, 20 mM imidazole, 10% (v/v) glycerol}. The column was washed with 30 ml of Buffer A, and then with 6 ml of Buffer B {20 mM Tris-HCl (pH 8.5), 5 mM 2-mercaptoethanol, 1M KCl, 10% (v/v) glycerol}, and finally with 6 ml of Buffer A. After washing, it was eluted with 6 ml of Buffer C {20 mM Tris-HCl (pH 8.5), 5 mM 2-mercaptoethanol, 100 mM KCl, 100 mM imidazole, 10% (v/v) glycerol}. The eluate was placed on a dialysis membrane (purchased from Spectrum Laboratories) and dialyzed with a dialysis buffer {20 mM Tris-HCl (pH 7.5), 10% (v/v) glycerol, 1 mM dithiothreitol, 0.1 mM Na3VO4, 0.1 mM EGTA}. […] Using the same method for the cytoplasmic domains of FGFR1, PDGFRβ and HGFR yielded respective recombinant proteins fused with 6 histidine residues at the N-terminal (His6-FGFR1, His6-PDGFRβ or His6-HGFR).
The tyrosine kinase reaction was conducted as follows. […] Next, 10 μl of 4 μM ATP (diluted with distilled water) was added prior to incubation at 30° C. for 10 minutes, and then 10 μl of 500 mM EDTA (pH 8.0) was added.
The tyrosine phosphorylation rate for the biotin-poly(GT) was expressed as the delta F % value as described in the HTRF Standard Experiment Methods text by CIS Diagnostics Co. The delta F % value in the presence of the test substance was determined as a ratio (%) with the delta F % value with addition of His6-VEGFR2 in the absence of the test substance defined as 100% and the delta F % value in the absence of both the test substance and His6-VEGFR2 defined as 0%.

T1 sequence (P35968 786-1356 limits assumed): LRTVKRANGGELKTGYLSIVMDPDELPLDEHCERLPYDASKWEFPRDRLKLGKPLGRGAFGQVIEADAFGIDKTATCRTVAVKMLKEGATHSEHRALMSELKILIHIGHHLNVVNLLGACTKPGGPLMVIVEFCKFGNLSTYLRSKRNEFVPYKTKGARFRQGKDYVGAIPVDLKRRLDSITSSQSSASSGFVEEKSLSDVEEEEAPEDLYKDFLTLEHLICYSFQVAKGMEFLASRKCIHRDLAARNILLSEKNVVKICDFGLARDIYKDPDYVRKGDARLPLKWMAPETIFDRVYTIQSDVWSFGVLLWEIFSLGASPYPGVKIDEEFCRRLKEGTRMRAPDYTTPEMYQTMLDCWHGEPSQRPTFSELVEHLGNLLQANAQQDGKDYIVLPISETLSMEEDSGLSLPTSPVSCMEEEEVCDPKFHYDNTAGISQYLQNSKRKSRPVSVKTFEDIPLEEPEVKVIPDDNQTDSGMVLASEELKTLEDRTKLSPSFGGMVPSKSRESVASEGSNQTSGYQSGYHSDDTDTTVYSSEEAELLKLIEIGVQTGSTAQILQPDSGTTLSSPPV

Row | Structure (SMILES) | IC50 [nM]
1 | CNC(=O)n1ccc2cc(Oc3ccnc(NC(=O)N4CCC(O)CC4)c3)ccc21 [Example 39, N1-Methyl-5-(2-((4-hydroxypiperidino)carbonyl)amino-4-pyridyl)oxy-1H-1-indolecarboxamide] | 4.5
2 | CNC(=O)n1ccc2cc(Oc3ccnc(NC(=O)N4CCC(C)(O)CC4)c3)ccc21 [Example 41, 5-(2-(((4-Hydroxy-4-methylpiperidin-1-yl)carbonyl)amino)pyridin-4-yloxy)-1H-1-indole-1-carboxylic acid methylamide] | 6.1

Other lines, results leading:

Row | IC50 [nM] | Structure (SMILES)
3 | 32 | CNC(=O)n1ccc2cc(Oc3ccnc(NC(=O)N4CCC(N5CCCC5)CC4)c3)ccc21 [Example 46, N1-Methyl-5-(2-(((4-(pyrrolidin-1-yl)piperidin-1-yl)carbonyl)amino)pyridin-4-yloxy)-1H-1-indolecarboxamide]
4 | 40 | CNC(=O)n1ccc2cc(Oc3ccnc(NC(=O)N4CCC(N5CCCCC5)CC4)c3)ccc21 [Example 47, N1-Methyl-5-(2-(((4-(piperidin-1-yl)piperidin-1-yl)carbonyl)amino)pyridin-4-yloxy)-1H-1-indolecarboxamide]
5 | 3.8 | CNC(=O)n1ccc2cc(Oc3ccnc(NC(=O)N4CCOCC4)c3)ccc21 [Example 53, N4-(4-(1-(Methylamino)carbonyl-1H-5-indolyl)oxy-2-pyridyl)-4-morpholinecarboxamide]
